Experiments:
[1] = target: Carbonic anhydrase 9 (Homo sapiens, UniProt Q16790)
[2] = target: Carbonic anhydrase 1 (Homo sapiens, UniProt P00915)
[3] = target: Carbonic anhydrase 12 (Homo sapiens, UniProt O43570)
[4] = target: Carbonic anhydrase 2 (Homo sapiens, UniProt P00918)
[5] = Permeability by PAMPA; assay type: ADME; conditions: read-out: permeability

Carbonic anhydrase 1, sequence (P00915 whole entry): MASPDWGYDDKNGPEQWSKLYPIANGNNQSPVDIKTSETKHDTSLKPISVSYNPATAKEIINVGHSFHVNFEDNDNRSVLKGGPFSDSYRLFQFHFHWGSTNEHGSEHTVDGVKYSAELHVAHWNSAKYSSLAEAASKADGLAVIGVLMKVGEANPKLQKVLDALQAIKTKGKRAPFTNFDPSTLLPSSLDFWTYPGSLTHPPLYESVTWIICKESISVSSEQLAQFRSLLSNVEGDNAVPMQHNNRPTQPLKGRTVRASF
Carbonic anhydrase 12, sequence (O43570 whole entry): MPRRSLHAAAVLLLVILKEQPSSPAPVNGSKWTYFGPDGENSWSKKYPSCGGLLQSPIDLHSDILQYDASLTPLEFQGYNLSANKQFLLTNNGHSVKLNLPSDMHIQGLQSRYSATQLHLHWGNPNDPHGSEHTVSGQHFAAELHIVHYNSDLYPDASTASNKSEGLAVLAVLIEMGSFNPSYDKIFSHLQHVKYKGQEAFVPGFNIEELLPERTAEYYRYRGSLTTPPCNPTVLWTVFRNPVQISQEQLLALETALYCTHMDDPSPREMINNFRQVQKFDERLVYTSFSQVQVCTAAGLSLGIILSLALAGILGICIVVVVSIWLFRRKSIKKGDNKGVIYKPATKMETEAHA

Ki [2]	Ki [3]	Ki [4]	Papp [5]	SMILES	Ki [1]
0.107 µM	0.0089 µM	0.005 µM		NS(=O)(=O)c1ccc(CNS(=O)(=O)[C@@H]2O[C@H](CO)[C@@H](O[C@@H]3O[C@H](CO)[C@H](O)[C@H](O)[C@H]3O)[C@H](O)[C@H]2O)cc1	0.106 µM
4.16 µM	0.0115 µM	0.0148 µM		CC(=O)OC[C@H]1O[C@@H](SNCc2ccc(S(N)(=O)=O)cc2)[C@H](OC(C)=O)[C@@H](OC(C)=O)[C@@H]1OC(C)=O	
0.101 µM	0.0082 µM	0.0048 µM		NS(=O)(=O)c1ccc(CNS(=O)(=O)[C@@H]2O[C@H](CO)[C@@H](O[C@H]3O[C@H](CO)[C@@H](O)[C@H](O)[C@H]3O)[C@H](O)[C@H]2O)cc1	0.098 µM
3.21 µM	0.0097 µM	0.0627 µM		COC(=O)[C@H]1O[C@@H](S(=O)(=O)NCCc2ccc(S(N)(=O)=O)cc2)[C@H](OC(C)=O)[C@@H](OC(C)=O)[C@H]1OC(C)=O	0.095 µM
0.088 µM	0.0076 µM	0.0078 µM		NS(=O)(=O)c1ccc(CCNS(=O)(=O)[C@@H]2O[C@H](CO)[C@@H](O)[C@H](O)[C@H]2O)cc1	0.084 µM
0.082 µM	0.0078 µM	0.0076 µM		NS(=O)(=O)c1ccc(CCNS(=O)(=O)[C@@H]2O[C@H](CO)[C@H](O)[C@H](O)[C@H]2O)cc1	0.1 µM
0.09 µM	0.0095 µM	0.0154 µM		CC(=O)OC[C@H]1O[C@@H](S(=O)(=O)NCCc2ccc(S(N)(=O)=O)cc2)[C@H](OC(C)=O)[C@@H](OC(C)=O)[C@@H]1OC(C)=O	
4.71 µM	0.0094 µM	0.0738 µM		CC(=O)OC[C@H]1O[C@@H](S(=O)(=O)NCCc2ccc(S(N)(=O)=O)cc2)[C@H](OC(C)=O)[C@@H](OC(C)=O)[C@H]1OC(C)=O	
6.83 µM	0.0098 µM	0.0155 µM		CC(=O)OC[C@H]1O[C@@H](O[C@H]2[C@H](OC(C)=O)[C@@H](OC(C)=O)[C@H](SNCc3ccc(S(N)(=O)=O)cc3)O[C@@H]2COC(C)=O)[C@H](OC(C)=O)[C@@H](OC(C)=O)[C@H]1OC(C)=O	
3.46 µM	0.0085 µM	0.0131 µM		CC(=O)OC[C@H]1O[C@@H](SNCc2ccc(S(N)(=O)=O)cc2)[C@H](OC(C)=O)[C@@H](OC(C)=O)[C@@H]1O[C@H]1O[C@H](COC(C)=O)[C@@H](OC(C)=O)[C@H](OC(C)=O)[C@H]1OC(C)=O	
0.11 µM	0.0095 µM	0.0162 µM		COC(=O)[C@H]1O[C@@H](SNCCc2ccc(S(N)(=O)=O)cc2)[C@H](OC(C)=O)[C@@H](OC(C)=O)[C@H]1OC(C)=O	
0.102 µM	0.0083 µM	0.0091 µM	< 0.05 ×10⁻⁶ cm/s	NS(=O)(=O)c1ccc(CNS(=O)(=O)[C@@H]2O[C@H](CO)[C@@H](O)[C@H](O)[C@H]2O)cc1	
4.93 µM	0.0104 µM	0.0588 µM		CC(=O)OC[C@H]1O[C@@H](O[C@H]2[C@H](OC(C)=O)[C@@H](OC(C)=O)[C@H](S(=O)(=O)NCc3ccc(S(N)(=O)=O)cc3)O[C@@H]2COC(C)=O)[C@H](OC(C)=O)[C@@H](OC(C)=O)[C@H]1OC(C)=O	
2.04 µM	0.0091 µM	0.0625 µM		CC(=O)OC[C@H]1O[C@@H](S(=O)(=O)NCc2ccc(S(N)(=O)=O)cc2)[C@H](OC(C)=O)[C@@H](OC(C)=O)[C@@H]1O[C@H]1O[C@H](COC(C)=O)[C@@H](OC(C)=O)[C@H](OC(C)=O)[C@H]1OC(C)=O	
0.087 µM	0.0087 µM	0.0078 µM		NS(=O)(=O)c1ccc(CNS(=O)(=O)[C@@H]2O[C@H](CO)[C@H](O)[C@H](O)[C@H]2O)cc1	
8.04 µM	0.0087 µM	0.012 µM		CC(=O)OC[C@H]1O[C@@H](O[C@H]2[C@H](OC(C)=O)[C@@H](OC(C)=O)[C@H](SNCCc3ccc(S(N)(=O)=O)cc3)O[C@@H]2COC(C)=O)[C@H](OC(C)=O)[C@@H](OC(C)=O)[C@H]1OC(C)=O	0.097 µM
6.75 µM	0.0088 µM	0.0151 µM		CC(=O)OC[C@H]1O[C@@H](SNCCc2ccc(S(N)(=O)=O)cc2)[C@H](OC(C)=O)[C@@H](OC(C)=O)[C@@H]1O[C@H]1O[C@H](COC(C)=O)[C@@H](OC(C)=O)[C@H](OC(C)=O)[C@H]1OC(C)=O	0.094 µM
0.12 µM	0.0155 µM	0.0134 µM		CC(=O)OC[C@H]1O[C@@H](SNCc2ccc(S(N)(=O)=O)cc2)[C@H](OC(C)=O)[C@@H](OC(C)=O)[C@H]1OC(C)=O	
0.11 µM	0.0156 µM	0.0181 µM		COC(=O)[C@H]1O[C@@H](SNCc2ccc(S(N)(=O)=O)cc2)[C@H](OC(C)=O)[C@@H](OC(C)=O)[C@H]1OC(C)=O	0.102 µM
0.12 µM	0.0093 µM	0.0148 µM	< 0.05 ×10⁻⁶ cm/s	CC(=O)OC[C@H]1O[C@@H](S(=O)(=O)NCc2ccc(S(N)(=O)=O)cc2)[C@H](OC(C)=O)[C@@H](OC(C)=O)[C@@H]1OC(C)=O	
0.11 µM	0.0099 µM	0.0163 µM		CC(=O)OC[C@H]1O[C@@H](S(=O)(=O)NCc2ccc(S(N)(=O)=O)cc2)[C@H](OC(C)=O)[C@@H](OC(C)=O)[C@H]1OC(C)=O	
2.4 µM	0.0098 µM	0.0658 µM		COC(=O)[C@H]1O[C@@H](S(=O)(=O)NCc2ccc(S(N)(=O)=O)cc2)[C@H](OC(C)=O)[C@@H](OC(C)=O)[C@H]1OC(C)=O	
			< 0.15 ×10⁻⁶ cm/s	CC(=O)Nc1nnc(S(N)(=O)=O)s1 [ACETAZOLAMIDE]	

SMILES	Ki [2]	Ki [3]	Ki [4]	Papp [5]	Ki [1]
NS(=O)(=O)c1ccc(CNS(=O)(=O)[C@@H]2O[C@H](C(=O)O)[C@H](O)[C@H](O)[C@H]2O)cc1	0.081 µM	0.0089 µM	0.0071 µM		0.097 µM
NS(=O)(=O)c1ccc(CCNS(=O)(=O)[C@@H]2O[C@H](C(=O)O)[C@H](O)[C@H](O)[C@H]2O)cc1	0.097 µM	0.0095 µM	0.0047 µM		0.096 µM
NS(=O)(=O)c1ccc(CCNS(=O)(=O)[C@@H]2O[C@H](CO)[C@@H](O[C@@H]3O[C@H](CO)[C@H](O)[C@H](O)[C@H]3O)[C@H](O)[C@H]2O)cc1	0.078 µM	0.0091 µM	0.0046 µM		0.1 µM
NS(=O)(=O)c1ccc(CCNS(=O)(=O)[C@@H]2O[C@H](CO)[C@@H](O[C@H]3O[C@H](CO)[C@@H](O)[C@H](O)[C@H]3O)[C@H](O)[C@H]2O)cc1	0.102 µM	0.0073 µM	0.0052 µM		0.081 µM
CC(=O)OC[C@H]1O[C@@H](SNCCc2ccc(S(N)(=O)=O)cc2)[C@H](OC(C)=O)[C@@H](OC(C)=O)[C@@H]1OC(C)=O	3.89 µM	0.0136 µM	0.0145 µM		0.097 µM
CC(=O)OC[C@H]1O[C@@H](SNCCc2ccc(S(N)(=O)=O)cc2)[C@H](OC(C)=O)[C@@H](OC(C)=O)[C@H]1OC(C)=O	4.1 µM	0.0167 µM	0.0133 µM		0.107 µM
CC(=O)OC[C@H]1O[C@@H](O[C@H]2[C@H](OC(C)=O)[C@@H](OC(C)=O)[C@H](S(=O)(=O)NCCc3ccc(S(N)(=O)=O)cc3)O[C@@H]2COC(C)=O)[C@H](OC(C)=O)[C@@H](OC(C)=O)[C@H]1OC(C)=O	3.46 µM	0.0095 µM	0.0562 µM		0.097 µM
CC(=O)OC[C@H]1O[C@@H](S(=O)(=O)NCCc2ccc(S(N)(=O)=O)cc2)[C@H](OC(C)=O)[C@@H](OC(C)=O)[C@@H]1O[C@H]1O[C@H](COC(C)=O)[C@@H](OC(C)=O)[C@H](OC(C)=O)[C@H]1OC(C)=O	5.57 µM	0.0088 µM	0.0152 µM		0.093 µM

From ChEMBL document CHEMBL1156297, “Sulfonamide linked neoglycoconjugates--a new class of inhibitors for cancer-associated carbonic anhydrases” (J Med Chem, 2010)
